From US20240317777A1, “NOVEL MACROCYCLIC AMINOPYRAZOLE COMPOUNDS AS CDK2 INHIBITORS” (Accutar Biotechnology Inc., priority 2023, published 2024)
Read-outs that look alike come from different tables or passages of the source.

Columns and labels:
[1] = molecular target: CDK1-CYCLIN B (Homo sapiens, UniProt P06493); experiment: CDK protein kinase inhibition by ADP-Glo assay, CDK1-CYCLIN B; format: biochemical; conditions: for IC50: ADP-Glo, 1000 μM ATP, read-out: CDK1-CYCLINB, IC50; for CDK2 fold selectivity over CDK1 / CDK2 Fold selectivity, CDK1: CDK2 versus CDK1; for CDK2 fold selectivity over CDK1: Table 8
Outline: (§1)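 Kinase/cyclin + peptide substrate + cpd + ATP (1000 μM)/MgCl2 (5 mM), HEPES pH 7.5, 22° C; quench, ADP-Glo reagent 45 min RT, detection reagent 10 min, luminescence.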

[2] = molecular target: CDK2-CYCLIN E1 (Homo sapiens, UniProt P24941); experiment: CDK protein kinase inhibition by ADP-Glo assay, CDK2-CYCLIN E1; format: biochemical; conditions: ADP-Glo, 1000 μM ATP, read-out: CDK2-CYCLINE, IC50
Outline: as §1

[3] = molecular target: CDK4-CYCLIN D1 (Homo sapiens, UniProt P11802); experiment: CDK protein kinase inhibition by ADP-Glo assay, CDK4-CYCLIN D1; format: biochemical; conditions: for IC50: ADP-Glo, 1000 μM ATP, read-out: CDK4-CYCLIND1, IC50; for CDK2 Fold Sensitivity, CDK4 / CDK2 Fold selectivity, CDK4: CDK2 versus CDK4; for CDK2 Fold Sensitivity, CDK4: Table 8
Outline: as §1

[4] = molecular target: CDK6-CYCLIN D3 (Homo sapiens, UniProt Q00534); experiment: CDK protein kinase inhibition by ADP-Glo assay, CDK6-CYCLIN D3; format: biochemical; conditions: for IC50: ADP-Glo, 1000 μM ATP, read-out: CDK6-CYCLIND3, IC50; for CDK2 Fold Sensitivity, CDK6 / CDK2 Fold selectivity, CDK6: CDK2 versus CDK6; for CDK2 Fold Sensitivity, CDK6: Table 8
Outline: as §1

[5] = molecular target: CDK9-CYCLIN T1 (Homo sapiens, UniProt P50750); experiment: CDK protein kinase inhibition by ADP-Glo assay, CDK9-CYCLIN T1; format: biochemical; conditions: for IC50: ADP-Glo, 1000 μM ATP, read-out: CDK9-CYCLINT1, IC50; for CDK2 Fold Sensitivity, CDK9 / CDK2 Fold selectivity, CDK9: CDK2 versus CDK9; for CDK2 Fold Sensitivity, CDK9: Table 8
Outline: as §1

[6] = tested on: Phospho-Rb (Ser807/811) in OVCAR3 cells; experiment: Phospho-Rb expression inhibition in OVCAR3 cells quantified by In Cell Western; format: cell-based; conditions: Homo sapiens, OVCAR-3, 24 hours, read-out: OVCAR-3 pRb IC50
Outline: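 In-cell western: after 24 h compound exposure at 37° C, fixed OVCAR3 cells co-stained for pRb Ser807/811 (800 nm channel) and total Rb (680 nm channel), imaged by LI-COR Odyssey.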

[7] = tested on: CCNE1-amplified OVCAR3 cells; experiment: Cell growth inhibition of CCNE1-amplified OVCAR3 cells (CellTiter-Glo); format: cell-based; conditions: Homo sapiens, OVCAR-3, 144 h, 6 days
Outline: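 Growth read-out was CellTiter-Glo luminescence, taken after 10 min at room temperature at the end of a 6-day compound exposure at 37 °C. Compounds were diluted from DMSO stocks across various concentrations.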

[8] = tested on: CCNE1-normal SKOV3 cells; experiment: Cell growth inhibition of CCNE1-normal SKOV3 cells (CellTiter-Glo); format: cell-based; conditions: Homo sapiens, SK-OV-3, 144 h, 6 days
Outline: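 Growth was measured by CellTiter-Glo luminescence after 6 days' compound exposure at 37 °C. Cells were plated one day before dosing at 1000 per well in medium with 10% FBS, and compounds were diluted from DMSO stocks.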

Sequence of CDK6-CYCLIN D3 (Q00534 whole entry): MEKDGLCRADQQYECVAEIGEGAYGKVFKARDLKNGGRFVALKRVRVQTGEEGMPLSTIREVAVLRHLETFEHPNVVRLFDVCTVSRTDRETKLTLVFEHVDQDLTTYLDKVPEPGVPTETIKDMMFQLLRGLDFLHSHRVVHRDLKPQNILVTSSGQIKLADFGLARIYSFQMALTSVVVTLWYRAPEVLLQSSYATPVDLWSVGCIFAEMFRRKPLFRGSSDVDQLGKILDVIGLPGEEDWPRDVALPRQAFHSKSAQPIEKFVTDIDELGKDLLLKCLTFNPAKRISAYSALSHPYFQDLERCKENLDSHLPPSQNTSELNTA
Sequence of CDK6-CYCLIN D3 (P30281 whole entry partner): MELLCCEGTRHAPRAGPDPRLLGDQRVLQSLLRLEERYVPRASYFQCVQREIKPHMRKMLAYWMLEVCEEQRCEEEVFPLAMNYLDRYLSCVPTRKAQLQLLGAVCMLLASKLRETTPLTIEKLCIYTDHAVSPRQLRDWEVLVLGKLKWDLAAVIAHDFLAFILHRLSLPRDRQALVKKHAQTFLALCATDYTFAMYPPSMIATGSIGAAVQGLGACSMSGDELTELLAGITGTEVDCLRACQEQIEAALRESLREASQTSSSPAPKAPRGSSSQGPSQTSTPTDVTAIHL
Sequence of CDK4-CYCLIN D1 (P11802 whole entry): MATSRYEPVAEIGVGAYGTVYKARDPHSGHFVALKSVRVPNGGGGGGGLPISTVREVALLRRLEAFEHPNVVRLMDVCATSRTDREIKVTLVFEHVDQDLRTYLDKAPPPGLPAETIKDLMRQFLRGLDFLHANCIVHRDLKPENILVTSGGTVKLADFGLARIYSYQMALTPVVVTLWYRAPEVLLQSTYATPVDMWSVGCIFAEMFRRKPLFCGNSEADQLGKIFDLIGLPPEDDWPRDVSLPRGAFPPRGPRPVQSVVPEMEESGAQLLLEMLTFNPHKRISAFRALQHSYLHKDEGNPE
Sequence of CDK4-CYCLIN D1 (P24385 whole entry partner): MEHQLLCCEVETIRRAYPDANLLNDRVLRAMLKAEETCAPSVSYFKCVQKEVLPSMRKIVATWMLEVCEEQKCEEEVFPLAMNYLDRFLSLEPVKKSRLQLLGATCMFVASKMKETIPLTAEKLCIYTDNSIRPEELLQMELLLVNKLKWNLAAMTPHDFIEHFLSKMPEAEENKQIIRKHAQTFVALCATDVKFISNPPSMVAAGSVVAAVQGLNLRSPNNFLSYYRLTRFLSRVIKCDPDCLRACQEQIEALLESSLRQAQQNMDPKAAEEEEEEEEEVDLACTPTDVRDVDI
Sequence of CDK1-CYCLIN B (P06493 whole entry): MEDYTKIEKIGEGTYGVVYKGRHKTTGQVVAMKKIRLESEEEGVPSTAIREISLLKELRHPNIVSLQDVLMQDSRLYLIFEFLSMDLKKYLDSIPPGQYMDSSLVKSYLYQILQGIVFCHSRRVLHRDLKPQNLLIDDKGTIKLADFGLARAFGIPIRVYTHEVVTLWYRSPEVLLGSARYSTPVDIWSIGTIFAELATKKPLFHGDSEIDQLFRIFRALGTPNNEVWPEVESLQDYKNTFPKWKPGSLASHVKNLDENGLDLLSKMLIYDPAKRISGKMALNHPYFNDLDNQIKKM
Sequence of CDK1-CYCLIN B (P14635 whole entry partner): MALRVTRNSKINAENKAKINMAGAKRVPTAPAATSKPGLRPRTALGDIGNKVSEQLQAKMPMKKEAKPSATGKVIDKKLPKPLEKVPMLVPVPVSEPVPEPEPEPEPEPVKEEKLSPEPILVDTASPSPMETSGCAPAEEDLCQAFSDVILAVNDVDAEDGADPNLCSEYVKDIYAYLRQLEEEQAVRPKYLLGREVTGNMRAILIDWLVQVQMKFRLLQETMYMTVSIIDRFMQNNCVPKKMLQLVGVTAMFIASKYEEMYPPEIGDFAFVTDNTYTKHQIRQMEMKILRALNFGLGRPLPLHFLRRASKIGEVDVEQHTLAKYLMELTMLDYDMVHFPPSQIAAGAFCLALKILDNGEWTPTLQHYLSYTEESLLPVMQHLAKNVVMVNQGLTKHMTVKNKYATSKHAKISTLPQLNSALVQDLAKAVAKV
Sequence of CDK9-CYCLIN T1 (P50750 whole entry): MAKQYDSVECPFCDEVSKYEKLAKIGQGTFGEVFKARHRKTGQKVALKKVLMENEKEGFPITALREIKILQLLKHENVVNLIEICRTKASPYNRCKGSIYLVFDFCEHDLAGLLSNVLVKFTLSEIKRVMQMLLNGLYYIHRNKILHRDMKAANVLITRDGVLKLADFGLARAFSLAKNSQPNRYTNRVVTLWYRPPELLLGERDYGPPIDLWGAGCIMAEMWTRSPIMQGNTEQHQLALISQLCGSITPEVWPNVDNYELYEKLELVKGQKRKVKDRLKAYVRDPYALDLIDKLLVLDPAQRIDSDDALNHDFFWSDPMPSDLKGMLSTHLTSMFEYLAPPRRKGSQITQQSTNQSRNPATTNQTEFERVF
Sequence of CDK9-CYCLIN T1 (O60563 whole entry partner): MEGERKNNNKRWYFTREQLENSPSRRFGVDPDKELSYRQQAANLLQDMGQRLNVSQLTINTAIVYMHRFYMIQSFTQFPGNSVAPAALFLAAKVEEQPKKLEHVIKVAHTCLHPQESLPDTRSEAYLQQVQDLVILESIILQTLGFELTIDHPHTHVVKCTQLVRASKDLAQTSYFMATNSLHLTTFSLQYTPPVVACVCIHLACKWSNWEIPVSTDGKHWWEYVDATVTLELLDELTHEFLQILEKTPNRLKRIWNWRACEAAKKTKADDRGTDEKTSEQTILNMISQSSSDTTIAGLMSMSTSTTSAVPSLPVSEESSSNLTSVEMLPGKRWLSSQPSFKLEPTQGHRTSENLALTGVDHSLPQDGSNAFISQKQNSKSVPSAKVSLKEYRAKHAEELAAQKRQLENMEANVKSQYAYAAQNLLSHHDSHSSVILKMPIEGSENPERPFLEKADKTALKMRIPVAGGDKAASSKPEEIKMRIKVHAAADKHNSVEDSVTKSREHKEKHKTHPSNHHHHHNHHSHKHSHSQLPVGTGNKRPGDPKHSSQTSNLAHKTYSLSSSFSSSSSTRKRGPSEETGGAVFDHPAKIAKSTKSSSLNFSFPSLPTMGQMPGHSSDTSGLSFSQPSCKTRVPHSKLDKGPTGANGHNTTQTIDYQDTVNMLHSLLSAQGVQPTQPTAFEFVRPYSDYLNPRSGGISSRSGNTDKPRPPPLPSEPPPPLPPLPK

Row | IC50 ([1]; Table 7) [nM] | CDK2 fold selectivity over CDK1 [1] | IC50 ([2]; Table 7) [nM] | IC50 ([3]; Table 7) [nM] | CDK2 Fold Sensitivity, CDK4 [3] | IC50 ([4]; Table 7) [nM] | CDK2 Fold Sensitivity, CDK6 [4] | IC50 ([5]; Table 7) [nM] | CDK2 Fold Sensitivity, CDK9 [5] | IC50 [6] [nM] | IC50 [7] [nM] | Compound | IC50 [8] [nM] | also measured
1 | ≤ 10 | E (E, <20) | ≤ 10 | 100 to 500 | B (B, >100 and ≤500) | 50 to 100 | B (B, >100 and ≤500) | 50 to 100 | C (C, >50 and ≤100) | 2 to 10 | 2 to 10 | O=C1NCCCCCc2cc(cc(C(F)F)n2)Nc2cc([nH]n2)[C@H]2CC[C@H](C2)O1 [Compound 17, (1^1S,1^3R,Z)-4^6-(difluoromethyl)-2^1H-12-oxa-3,10-diaza-4(4,2)-pyridina-2(3,5)-pyrazola-1(1,3)-cyclopentanacyclododecaphan-11-one] | 250 to 1250 | –
2 | – | – | – | – | – | – | – | – | – | ≤ 2 | ≤ 2 | O=C1NCCCO[C@@H](C(F)(F)F)c2cc(ccn2)Nc2cc(n[nH]2)[C@H]2CC[C@H](C2)O1 [Compound 161, (1^1S,1^3R,5R,Z)-5-(trifluoromethyl)-2^1H-6,12-dioxa-3,10-diaza-4(4,2)-pyridina-2(3,5)-pyrazola-1(1,3)-cyclopentanacyclododecaphan-11-one] | 50 to 250 | IC50 ([1]; Table 21): ≤ 10 nM; CDK2 Fold selectivity, CDK1 ([1]; Table 22): E (E, <20); IC50 ([2]; Table 21): ≤ 10 nM; IC50 ([3]; Table 21): 10 to 50 nM; CDK2 Fold selectivity, CDK4 ([3]; Table 22): E (E, <20); IC50 ([4]; Table 21): 10 to 50 nM; CDK2 Fold selectivity, CDK6 ([4]; Table 22): E (E, <20); IC50 ([5]; Table 21): 10 to 50 nM; CDK2 Fold selectivity, CDK9 ([5]; Table 22): E (E, <20)
3 | – | – | – | – | – | – | – | – | – | ≤ 2 | 2 to 10 | O=C1NC2CC(/C=C/c3cc(ccn3)Nc3cc(n[nH]3)[C@H]3CC[C@H](C3)O1)C2 [Compound 172, (1^1S,1^3R,2^4Z,7^1R,7^3S,5E)-2^1H-10-oxa-3,8-diaza-4(4,2)-pyridina-2(3,5)-pyrazola-1(1,3)-cyclopentana-7(1,3)-cyclobutanacyclodecaphan-5-en-9-one] | 10 to 50 | IC50 ([1]; Table 25): ≤ 10 nM; CDK2 Fold selectivity, CDK1 ([1]; Table 26): E (E, <20); IC50 ([2]; Table 25): ≤ 10 nM; IC50 ([3]; Table 25): ≤ 10 nM; CDK2 Fold selectivity, CDK4 ([3]; Table 26): E (E, <20); IC50 ([4]; Table 25): 10 to 50 nM; CDK2 Fold selectivity, CDK6 ([4]; Table 26): E (E, <20); IC50 ([5]; Table 25): ≤ 10 nM; CDK2 Fold selectivity, CDK9 ([5]; Table 26): E (E, <20)
4 | – | – | – | – | – | – | – | – | – | 2 to 10 | 10 to 50 | C[C@H]1CCCOc2cncc(c2)Nc2cc(n[nH]2)[C@H]2CC[C@H](C2)OC(=O)N1 [Compound 119, (1^1S,1^3R,9S,Z)-9-methyl-2^1H-5,12-dioxa-3,10-diaza-4(3,5)-pyridina-2(3,5)-pyrazola-1(1,3)-cyclopentanacyclododecaphan-11-one] | > 1250 | IC50 ([1]; Table 13): 10 to 50 nM; CDK2 Fold selectivity, CDK1 ([1]; Table 14): D (D, >20 and ≤50); IC50 ([2]; Table 13): ≤ 10 nM; IC50 ([3]; Table 13): 100 to 500 nM; CDK2 Fold selectivity, CDK4 ([3]; Table 14): C (C, >50 and ≤100); IC50 ([4]; Table 13): 10 to 50 nM; CDK2 Fold selectivity, CDK6 ([4]; Table 14): E (E, <20); IC50 ([5]; Table 13): 100 to 500 nM; CDK2 Fold selectivity, CDK9 ([5]; Table 14): C (C, >50 and ≤100)
5 | 100 to 500 | D (D, >20 and ≤50) | ≤ 10 | 50 to 100 | E (E, <20) | 50 to 100 | E (E, <20) | 100 to 500 | D (D, >20 and ≤50) | 10 to 50 | 50 to 250 | O=C1NCCCCCc2cc(ccn2)Nc2cc([nH]n2)[C@H]2CC[C@H](C2)O1 [Compound 4, (1^1S,1^3R,Z)-2^1H-12-oxa-3,10-diaza-4(4,2)-pyridina-2(3,5)-pyrazola-1(1,3)-cyclopentanacyclododecaphan-11-one] | 250 to 1250 | –
